Measured values published in the CheMixHub viscosity set.
± gives the uncertainty stated by the source.

Assay: xn = mol fraction of the nth substance listed

Q: Which results are given for `ClC(Cl)Cl` + CC(C)=O?
A: viscosity (293.15 K, 101 kPa, x1 = 0.157): 0.3875 ± 0.01 mPa·s; viscosity (293.15 K, 101 kPa, x1 = 0.362): 0.466 ± 0.012 mPa·s; viscosity (293.15 K, 101 kPa, x1 = 0.483): 0.511 ± 0.014 mPa·s; viscosity (293.15 K, 101 kPa, x1 = 0.609): 0.5471 ± 0.015 mPa·s; viscosity (293.15 K, 101 kPa, x1 = 0.824): 0.5836 ± 0.015 mPa·s; viscosity (293.15 K, 101 kPa, x2 = 0.112): 0.565 ± 0.006 mPa·s; viscosity (293.15 K, 101 kPa, x2 = 0.2): 0.561 ± 0.006 mPa·s; viscosity (293.15 K, 101 kPa, x2 = 0.3098): 0.543 ± 0.006 mPa·s; viscosity (293.15 K, 101 kPa, x2 = 0.415): 0.523 ± 0.005 mPa·s; viscosity (293.15 K, 101 kPa, x2 = 0.502): 0.495 ± 0.005 mPa·s; viscosity (293.15 K, 101 kPa, x2 = 0.6075): 0.456 ± 0.005 mPa·s; viscosity (293.15 K, 101 kPa, x2 = 0.715): 0.421 ± 0.005 mPa·s; viscosity (293.15 K, 101 kPa, x2 = 0.81): 0.384 ± 0.004 mPa·s; viscosity (293.15 K, 101 kPa, x2 = 0.9075): 0.349 ± 0.004 mPa·s; viscosity (293.15 K, 101.33 kPa, x1 = 0.1193): 0.357 ± 0.009 mPa·s; viscosity (293.15 K, 101.33 kPa, x1 = 0.2623): 0.408 ± 0.011 mPa·s; viscosity (293.15 K, 101.33 kPa, x1 = 0.3723): 0.453 ± 0.012 mPa·s; viscosity (293.15 K, 101.33 kPa, x1 = 0.5128): 0.508 ± 0.013 mPa·s; viscosity (293.15 K, 101.33 kPa, x1 = 0.6064): 0.538 ± 0.014 mPa·s; viscosity (293.15 K, 101.33 kPa, x1 = 0.7001): 0.56 ± 0.015 mPa·s; viscosity (293.15 K, 101.33 kPa, x1 = 0.8577): 0.583 ± 0.015 mPa·s; viscosity (293.16 K, 101 kPa, x1 = 0.1193): 0.357 ± 0.01 mPa·s; viscosity (293.16 K, 101 kPa, x1 = 0.2623): 0.408 ± 0.011 mPa·s; viscosity (293.16 K, 101 kPa, x1 = 0.3723): 0.453 ± 0.012 mPa·s; viscosity (293.16 K, 101 kPa, x1 = 0.5128): 0.508 ± 0.014 mPa·s; viscosity (293.16 K, 101 kPa, x1 = 0.6064): 0.538 ± 0.014 mPa·s; viscosity (293.16 K, 101 kPa, x1 = 0.7001): 0.56 ± 0.015 mPa·s; viscosity (293.16 K, 101 kPa, x1 = 0.8577): 0.583 ± 0.015 mPa·s; viscosity (293.35 K, 101 kPa, x1 = 0.75): 0.6037 ± 0.016 mPa·s; viscosity (293.45 K, 101 kPa, x1 = 0.5): 0.5307 ± 0.014 mPa·s; viscosity (298.15 K, 101 kPa, x1 = 0.2): 0.353 ± 0.0052 mPa·s; viscosity (298.15 K, 101 kPa, x1 = 0.4): 0.424 ± 0.0053 mPa·s; viscosity (298.15 K, 101 kPa, x1 = 0.6): 0.486 ± 0.0054 mPa·s; viscosity (298.15 K, 101 kPa, x1 = 0.8): 0.512 ± 0.0054 mPa·s; viscosity (298.15 K, 101 kPa, x2 = 0.0555): 0.5334 ± 0.0055 mPa·s; viscosity (298.15 K, 101 kPa, x2 = 0.112): 0.538 ± 0.006 mPa·s; viscosity (298.15 K, 101 kPa, x2 = 0.1361): 0.5423 ± 0.0055 mPa·s; viscosity (298.15 K, 101 kPa, x2 = 0.2): 0.534 ± 0.006 mPa·s; viscosity (298.15 K, 101 kPa, x2 = 0.2192): 0.5338 ± 0.0055 mPa·s; viscosity (298.15 K, 101 kPa, x2 = 0.2437): 0.536 ± 0.0055 mPa·s; viscosity (298.15 K, 101 kPa, x2 = 0.3023): 0.5258 ± 0.0054 mPa·s; viscosity (298.15 K, 101 kPa, x2 = 0.3098): 0.516 ± 0.005 mPa·s; viscosity (298.15 K, 101 kPa, x2 = 0.3737): 0.508 ± 0.0053 mPa·s; viscosity (298.15 K, 101 kPa, x2 = 0.415): 0.495 ± 0.005 mPa·s; viscosity (298.15 K, 101 kPa, x2 = 0.4585): 0.4864 ± 0.005 mPa·s; viscosity (298.15 K, 101 kPa, x2 = 0.496): 0.4726 ± 0.005 mPa·s; viscosity (298.15 K, 101 kPa, x2 = 0.502): 0.47 ± 0.005 mPa·s; viscosity (298.15 K, 101 kPa, x2 = 0.552): 0.4529 ± 0.0048 mPa·s; viscosity (298.15 K, 101 kPa, x2 = 0.5688): 0.4495 ± 0.0047 mPa·s; viscosity (298.15 K, 101 kPa, x2 = 0.6075): 0.434 ± 0.005 mPa·s; viscosity (298.15 K, 101 kPa, x2 = 0.6721): 0.411 ± 0.0044 mPa·s; viscosity (298.15 K, 101 kPa, x2 = 0.6793): 0.4052 ± 0.0044 mPa·s; viscosity (298.15 K, 101 kPa, x2 = 0.6886): 0.4042 ± 0.0043 mPa·s; viscosity (298.15 K, 101 kPa, x2 = 0.715): 0.402 ± 0.004 mPa·s; viscosity (298.15 K, 101 kPa, x2 = 0.7302): 0.3926 ± 0.0042 mPa·s; viscosity (298.15 K, 101 kPa, x2 = 0.7676): 0.3817 ± 0.0041 mPa·s; viscosity (298.15 K, 101 kPa, x2 = 0.8067): 0.3628 ± 0.004 mPa·s; viscosity (298.15 K, 101 kPa, x2 = 0.81): 0.367 ± 0.004 mPa·s; viscosity (298.15 K, 101 kPa, x2 = 0.8196): 0.3551 ± 0.004 mPa·s; viscosity (298.15 K, 101 kPa, x2 = 0.8757): 0.3425 ± 0.0038 mPa·s; viscosity (298.15 K, 101 kPa, x2 = 0.9075): 0.334 ± 0.004 mPa·s; viscosity (298.15 K, 101 kPa, x2 = 0.9182): 0.3261 ± 0.0037 mPa·s; viscosity (298.15 K, 101 kPa, x2 = 0.9233): 0.3206 ± 0.0037 mPa·s; viscosity (298.15 K, 101 kPa, x2 = 0.963): 0.3092 ± 0.0036 mPa·s; viscosity (298.15 K, 101.33 kPa, x1 = 0.1483): 0.356 ± 0.009 mPa·s; viscosity (298.15 K, 101.33 kPa, x1 = 0.2721): 0.4 ± 0.01 mPa·s; viscosity (298.15 K, 101.33 kPa, x1 = 0.3885): 0.445 ± 0.012 mPa·s; viscosity (298.15 K, 101.33 kPa, x1 = 0.4985): 0.485 ± 0.013 mPa·s; viscosity (298.15 K, 101.33 kPa, x1 = 0.6363): 0.527 ± 0.014 mPa·s; viscosity (298.15 K, 101.33 kPa, x1 = 0.7114): 0.543 ± 0.014 mPa·s; viscosity (298.15 K, 101.33 kPa, x1 = 0.8834): 0.557 ± 0.014 mPa·s; viscosity (298.16 K, 101 kPa, x1 = 0.1483): 0.356 ± 0.01 mPa·s; viscosity (298.16 K, 101 kPa, x1 = 0.2721): 0.4 ± 0.011 mPa·s; viscosity (298.16 K, 101 kPa, x1 = 0.3885): 0.445 ± 0.012 mPa·s; viscosity (298.16 K, 101 kPa, x1 = 0.4985): 0.485 ± 0.013 mPa·s; viscosity (298.16 K, 101 kPa, x1 = 0.6363): 0.527 ± 0.014 mPa·s; viscosity (298.16 K, 101 kPa, x1 = 0.7114): 0.543 ± 0.014 mPa·s; viscosity (298.16 K, 101 kPa, x1 = 0.8834): 0.557 ± 0.015 mPa·s; viscosity (302.95 K, 101 kPa, x1 = 0.25): 0.3982 ± 0.011 mPa·s; viscosity (303.15 K, 101 kPa, x2 = 0.112): 0.512 ± 0.005 mPa·s; viscosity (303.15 K, 101 kPa, x2 = 0.2): 0.507 ± 0.005 mPa·s; viscosity (303.15 K, 101 kPa, x2 = 0.3098): 0.488 ± 0.005 mPa·s; viscosity (303.15 K, 101 kPa, x2 = 0.415): 0.468 ± 0.005 mPa·s; viscosity (303.15 K, 101 kPa, x2 = 0.502): 0.447 ± 0.005 mPa·s; viscosity (303.15 K, 101 kPa, x2 = 0.6075): 0.412 ± 0.004 mPa·s; viscosity (303.15 K, 101 kPa, x2 = 0.715): 0.383 ± 0.004 mPa·s; viscosity (303.15 K, 101 kPa, x2 = 0.81): 0.35 ± 0.004 mPa·s; viscosity (303.15 K, 101 kPa, x2 = 0.9075): 0.322 ± 0.004 mPa·s; viscosity (303.15 K, 101.33 kPa, x1 = 0.1041): 0.326 ± 0.009 mPa·s; viscosity (303.15 K, 101.33 kPa, x1 = 0.1842): 0.352 ± 0.009 mPa·s; viscosity (303.15 K, 101.33 kPa, x1 = 0.2689): 0.381 ± 0.01 mPa·s; viscosity (303.15 K, 101.33 kPa, x1 = 0.3733): 0.424 ± 0.011 mPa·s; viscosity (303.15 K, 101.33 kPa, x1 = 0.5487): 0.488 ± 0.013 mPa·s; viscosity (303.15 K, 101.33 kPa, x1 = 0.6876): 0.514 ± 0.013 mPa·s; viscosity (303.15 K, 101.33 kPa, x1 = 0.8278): 0.54 ± 0.014 mPa·s; viscosity (303.16 K, 101 kPa, x1 = 0.1041): 0.326 ± 0.009 mPa·s; viscosity (303.16 K, 101 kPa, x1 = 0.1842): 0.352 ± 0.009 mPa·s; viscosity (303.16 K, 101 kPa, x1 = 0.2689): 0.381 ± 0.01 mPa·s; viscosity (303.16 K, 101 kPa, x1 = 0.3733): 0.424 ± 0.011 mPa·s; viscosity (303.16 K, 101 kPa, x1 = 0.5487): 0.488 ± 0.013 mPa·s; viscosity (303.16 K, 101 kPa, x1 = 0.6876): 0.514 ± 0.014 mPa·s; viscosity (303.16 K, 101 kPa, x1 = 0.8278): 0.54 ± 0.014 mPa·s; viscosity (303.55 K, 101 kPa, x1 = 0.75): 0.5427 ± 0.014 mPa·s; viscosity (303.65 K, 101 kPa, x1 = 0.5): 0.4779 ± 0.013 mPa·s; viscosity (308.15 K, 101 kPa, x2 = 0.112): 0.487 ± 0.005 mPa·s; viscosity (308.15 K, 101 kPa, x2 = 0.2): 0.482 ± 0.005 mPa·s; viscosity (308.15 K, 101 kPa, x2 = 0.3098): 0.467 ± 0.005 mPa·s; viscosity (308.15 K, 101 kPa, x2 = 0.415): 0.446 ± 0.005 mPa·s; viscosity (308.15 K, 101 kPa, x2 = 0.502): 0.426 ± 0.005 mPa·s; viscosity (308.15 K, 101 kPa, x2 = 0.6075): 0.398 ± 0.004 mPa·s; viscosity (308.15 K, 101 kPa, x2 = 0.715): 0.365 ± 0.004 mPa·s; viscosity (308.15 K, 101 kPa, x2 = 0.81): 0.336 ± 0.004 mPa·s; viscosity (308.15 K, 101 kPa, x2 = 0.9075): 0.312 ± 0.004 mPa·s; viscosity (311.65 K, 101 kPa, x1 = 0.75): 0.5052 ± 0.013 mPa·s; viscosity (313.15 K, 101 kPa, x1 = 0.157): 0.3324 ± 0.009 mPa·s; viscosity (313.15 K, 101 kPa, x1 = 0.25): 0.366 ± 0.0098 mPa·s; viscosity (313.15 K, 101 kPa, x1 = 0.362): 0.394 ± 0.011 mPa·s; viscosity (313.15 K, 101 kPa, x1 = 0.483): 0.4257 ± 0.011 mPa·s; viscosity (313.15 K, 101 kPa, x1 = 0.609): 0.4577 ± 0.012 mPa·s; viscosity (313.15 K, 101 kPa, x1 = 0.824): 0.4867 ± 0.013 mPa·s; viscosity (313.85 K, 101 kPa, x1 = 0.5): 0.4341 ± 0.012 mPa·s; viscosity (321.65 K, 101 kPa, x1 = 0.75): 0.4644 ± 0.012 mPa·s
